For test [1], the target named is T1, recombinant human α1D receptor (Homo sapiens, UniProt P25100).
T1 construct: expressed in transfected cells; host or cells: HEK293 cells (membranes)
T1 sequence (P25100 1-572): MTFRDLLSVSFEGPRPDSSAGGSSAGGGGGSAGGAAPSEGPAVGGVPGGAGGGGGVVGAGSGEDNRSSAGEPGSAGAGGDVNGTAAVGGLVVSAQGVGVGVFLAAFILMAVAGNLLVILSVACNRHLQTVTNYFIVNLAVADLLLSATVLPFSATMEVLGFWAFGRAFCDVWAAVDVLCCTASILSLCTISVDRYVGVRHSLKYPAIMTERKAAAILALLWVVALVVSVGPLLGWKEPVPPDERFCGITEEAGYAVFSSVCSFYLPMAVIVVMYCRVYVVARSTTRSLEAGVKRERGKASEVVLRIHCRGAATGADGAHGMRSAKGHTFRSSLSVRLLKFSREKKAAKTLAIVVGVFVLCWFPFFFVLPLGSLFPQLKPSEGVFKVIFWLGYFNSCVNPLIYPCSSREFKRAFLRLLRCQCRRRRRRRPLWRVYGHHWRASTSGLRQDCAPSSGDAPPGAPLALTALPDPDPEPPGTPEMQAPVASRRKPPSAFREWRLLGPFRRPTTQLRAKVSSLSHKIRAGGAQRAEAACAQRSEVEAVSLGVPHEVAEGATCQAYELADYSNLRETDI
The test is described as follows: Adrenergic α1D [3H]-prazosin binding, HEK293 membranes. The note with it: inhibition of [3H]-prazosin binding; read-out: α1 bind pIC50 (converted). The protocol: Membranes were prepared from human embryonic kidney 293 (HEK293) cells expressing recombinant human α1D receptor. These were diluted in Assay Buffer (50 mM HEPES, 1 mM EDTA, 0.1% gelatin, pH 7.4) to provide a final concentration of membranes that gave a clear window between maximum and minimum specific binding.
(§1) Assays were performed in U-bottomed 96-well polypropylene plates. 10 μL [^3H]-prazosin (0.3 nM final concentration) and 10 μL of Compound A (10× final concentration) were added to each test well. For each assay plate 8 replicates were obtained for [^3H]-prazosin binding in the presence of 10 μL vehicle (10% (v/v) DMSO in Assay Buffer; defining maximum binding) or 10 μL BMY7378 (10 μM final concentration; defining non-specific binding (NSB)). Membranes were then added to achieve a final volume of 100 μL. […] Five washes with 250 μL wash buffer (50 mM HEPES, 1 mM EDTA, pH 7.4) were performed at 4° C. to remove unbound radioactivity. […] The plates were sealed (TopSeal A) and filter-bound radioactivity was measured with a scintillation counter (TopCount, Packard BioScience) using a 3-minute counting protocol.
(§2) Total specific binding (B0) was determined by subtracting the mean NSB from the mean maximum binding. […]

Test [2] concerns the target T2, recombinant human adrenergic beta 1 receptors (Homo sapiens, UniProt P08588).
T2 construct: purchased Euroscreen
The test is described as follows: Adrenergic β1 [125I]-Iodocyanopindolol binding. The note with it: inhibition of [125I]-Iodocyanopindolol binding; read-out: β1 bind pIC50 (converted). As to the method: Membranes containing recombinant human adrenergic beta 1 receptors were obtained from Euroscreen. These were diluted in Assay Buffer (50 mM HEPES, 1 mM EDTA, 120 mM NaCl, 0.1% gelatin, pH 7.4) to provide a final concentration of membranes that gave a clear window between maximum and minimum specific binding.
as §1, with “PL [1251]-Iodocyanopindolol (0.036” for “μL [^3H]-prazosin (0.3”, “[^125]-Iodocyanopindolol” for “[^3H]-prazosin”, “Propranolol” for “BMY7378”, “EDTA, 120 mM NaCl,” for “EDTA,”
as §2

Test [3] has as its system LPS-induced intra-alveolar neutrophilia. The test is described as follows: Intra-alveolar neutrophil migration after intratracheal LPS challenge in the CRL:CD rat. It is filed as in vivo. As to the method:
Evaluation of Compound Activity on Intra-Alveolar Neutrophil Migration after Intratracheal Challenge with Lipopolysacharride (LPS) in the CRL:CD Rat
LPS challenge in CRL:CD rats causes an influx of neutrophils into the lungs. Under recoverable gaseous anaesthesia (5% isoflorane in oxygen), rats were dosed via the intratracheal route with vehicle (0.05M phosphate, 0.1% Tween 80, 0.6% saline, pH 6), or compound 30 min before challenge with an intratracheal dose of 10 μg/kg LPS.
The rats (250-400 g) were euthanized 4 hr after LPS challenge with 1 mL pentobarbitone sodium. A tracheotomy was performed and a cannula inserted. The airway was then lavaged using 3 mL Isoton at room temperature. The Isoton (BeckmanCoulter, High Wycombe, UK) was left in the airway for 10 seconds before being removed. The bronchio-alveolar lavage (BAL) fluid containing inflammatory cells was placed into a 15 mL centrifuge tube and kept on ice. This process was repeated three times. An aliquot of BAL fluid was removed and the inflammatory cells were counted on Sysmex (Sysmex UK, Milton Keynes). Neutrophils were expressed in millions/animal (mean ±s.e.mean).

Structures can show the parent of a compound that is named as a salt.

T2 sequence (P08588 whole entry): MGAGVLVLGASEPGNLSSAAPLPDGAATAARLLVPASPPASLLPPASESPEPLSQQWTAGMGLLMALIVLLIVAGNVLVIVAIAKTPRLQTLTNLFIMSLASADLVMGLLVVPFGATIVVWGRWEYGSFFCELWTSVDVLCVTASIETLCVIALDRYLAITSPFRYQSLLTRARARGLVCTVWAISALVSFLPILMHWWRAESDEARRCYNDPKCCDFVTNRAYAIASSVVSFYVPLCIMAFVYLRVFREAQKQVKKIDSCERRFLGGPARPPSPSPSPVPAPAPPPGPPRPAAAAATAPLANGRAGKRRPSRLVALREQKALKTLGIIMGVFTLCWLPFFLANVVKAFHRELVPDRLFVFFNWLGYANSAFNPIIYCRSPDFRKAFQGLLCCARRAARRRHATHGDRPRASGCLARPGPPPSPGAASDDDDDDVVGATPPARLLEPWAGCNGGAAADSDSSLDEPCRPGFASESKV

Regarding `CCN(CC)CCN(CCNCCc1ccc(O)c2[nH]c(=O)sc12)C(=O)CCOCCc1cccc2ccccc12` [Compound A, N-[2-(Diethylamino)ethyl]-N-(2-{[2-(4-hydroxy-2-oxo-2,3-dihydro-1,3-benzothiazol-7-yl)ethyl]amino}ethyl)-3-[2-(1-naphthyl)ethoxy]propanamide dihydrobromide], the results for the IC50 in test [1] and in test [2] were 251 nM and more than 10000 nM, respectively. Further, the inhibition of neutrophilia amounted to 43% in test [3] (Compound W study, compound A 0.1 μg/kg intratracheal 30 min prior to LPS); 26% in test [3] (Compound X study, compound A 0.1 μg/kg intratracheal 30 min prior to LPS); 45% in test [3] (budesonide study, compound A 0.2 μg/kg intratracheal 30 min prior to LPS 10 μg/kg, BAL 4 hr). In addition, the “neutrophils in BAL” value turned out to be 5.0±0.70 million/animal in test [3] (Compound W study, compound A 0.1 μg/kg, vehicle/LPS 11±1.8); 9.1±1.1 million/animal in test [3] (Compound X study, compound A 0.1 μg/kg, vehicle/LPS 12±1.7); 7.8±0.71 million/animal in test [3] (budesonide study, compound A 0.2 μg/kg intratracheal, mean ±s.e.mean, vehicle/LPS 14±1.6).

(Values after patent US20080242649A1, “New Combination 665” (priority 2007, published 2008).)
